Data: patent US20240165196A1, “Beta-Lactamase Inhibitors” (VIB VZW, priority 2021, published 2024)

Columns and labels:
[1] = system: E. coli strains carrying ESBL mutants of TEM; assay: checkerboard assay (FICI), TEM3.2 versus ampicillin; assay type: cell-based
Source text: FIGS. 2A-2M. (FIG. 2A) TEM mutations and their effects on stability (total energy) as predicted by FoldX. […] Dashed line indicates a total energy difference of 0.5 kcal/mol, the FoldX cut-off above which mutations are considered to be destabilizing. (FIG. 2B) Barplot mapping mutations in (FIG. 2A) to the TEM sequence and indicating occurrence. […] The bar heights correspond to the number of times a mutation occurs across different TEM variants (right-hand y-axis). The color coding is identical to that in (FIG. 2A). Red line indicates the TANGO scores (indicated on the left-hand y-axis), with peaks corresponding to APRs. […]
Moreover, the core sequence of peptide TEM3.0 also occurs in the structurally related SHV β-lactamase (FIG. 2E). […] To quantify the synergy between these four peptides and penicillin G, we performed a so-called checkerboard assay, which allows to compare the activity of two test compounds co-incubated (here peptide and a beta-lactam antibiotic), to their individual activities in isolation. The result from the assay is quantified as the Fractional Inhibitory Concentration Index (FICI), and it is generally accepted that values below 0.5 indicate synergistic effects between the compounds. […] We evaluated the synergy of the peptides with penicillin G in clinical E. coli isolates carrying the TEM (FIG. 2I) or SHV enzymes (FIG. 2J). […]

[2] = target: T1, recombinantly purified TEM-1 (Escherichia coli, UniProt P62593); assay type: biochemical, E. coli; settings: thioflavin-T aggregation assay
T1 construct: DNA TEM (870 bp) or SHV (894 bp) were each sub-cloned into a PUC57 vector cloning site NdeI/XhoI; His-tag (N); TEV cleavage site (N); made in house; host or cells: E. coli BL21 (DE3)
T1 sequence (P62593 24-286 limits assumed): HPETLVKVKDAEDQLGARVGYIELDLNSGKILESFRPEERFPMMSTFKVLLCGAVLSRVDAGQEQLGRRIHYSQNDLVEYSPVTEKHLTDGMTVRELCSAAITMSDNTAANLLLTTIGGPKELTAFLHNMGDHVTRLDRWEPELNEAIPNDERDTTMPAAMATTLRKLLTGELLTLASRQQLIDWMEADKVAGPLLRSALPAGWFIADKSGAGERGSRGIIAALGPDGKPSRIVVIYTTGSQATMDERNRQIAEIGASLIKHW
Source text: Three replicates are shown for each condition. […] A single representative image is shown. […] Three replicates are shown for each condition. […] A single representative image is shown. […] A single representative image is shown. […] A single representative image is shown.

HeLa = assay type: cell-based, human
Source text: FIGS. 4A-4K. […] IV—Intravenous, IP—Intraperitoneal, SC—Subcutaneously. The data shown is from a single experiment with 4 animals per group. […] (ns—non significant, #—P>0.05, *—P≤0.05, ***—P≤0.01, ****—P≤0.001). (FIG. 4G) FICI plot as in FIG. 2, for the E. coli strains indicated and the combination of penicillin and the TEM3.2 peptide. […] (FIG. 4J) Same as FIG. 4H for peptide BGAL. (FIG. 4K) Same as FIG. 4H for peptide P33.
Given this broad activity on clinical isolates, we wondered if the TEM3.2 peptide could be used to re-sensitize bacteria to ampicillin treatment in vivo, in a mouse Urinary Tract Infection (UTI) model.

NCI-H441 = assay type: cell-based, human
[3] = system: primary mouse cortical neurons; assay type: cell-based

Q: How did the “synergy with ampicillin (FICI)” value [1] turn out when Ac-RLTAFLHNRRPRLTAFLRQRR-NH2 [TEM3.2] was run?
A: Its value is “synergy”.

Q: And the “induction of aggregation of recombinantly purified TEM beta-lactamase” value [2]?
A: The value was “potent inducer of the aggregation”.

Q: What about the “cytotoxicity (Cell Titer Blue)” value (HeLa) of the same substance?
A: The value was “not cytotoxic”.

Q: What about the “cytotoxicity (Cell Titer Blue)” value (NCI-H441) of the same substance?
A: Its value is “not cytotoxic”.

Q: And the “cytotoxicity (Cell Titer Blue)” value [3]?
A: Its value is “not cytotoxic”.
